≈ marks a conversion by molar mass, not a printed value. Calls of active or inactive are those of the source. The calls are words filed in the database; no cut-off is given here.
Columns and labels:
[1] = system: Bacillus subtilis; assay: Antibacterial activity against Bacillus subtilis NCIM 2063 after 24 hrs by disk diffusion method; type: functional; settings: NCIM 2063, 24 h
[2] = system: Klebsiella pneumoniae; assay: Antibacterial activity against Klebsiella pneumoniae NCIM 2957 after 24 hrs by disk diffusion method; type: functional; settings: NCIM 2957, 24 h
[3] = system: Proteus vulgaris; assay: Antibacterial activity against Proteus vulgaris NCIM 2027 assessed as zone of inhibition at 100 ug/disc after 24 hrs by disk diffusion method; type: functional; settings: NCIM 2027, 24 h, read-out: DIZ
[4] = system: Klebsiella pneumoniae; assay: Antibacterial activity against Klebsiella pneumoniae NCIM 2957 assessed as zone of inhibition at 100 ug/disc after 24 hrs by disk diffusion method; type: functional; settings: NCIM 2957, 24 h, read-out: DIZ
[5] = system: Fusarium solani; assay: Antifungal activity against Fusarium solani NCIM 1330 after 48 hrs by disk diffusion method; type: functional; settings: NCIM 1330, 48 h
[6] = system: Staphylococcus aureus; assay: Antibacterial activity against Staphylococcus aureus NCIM 5021 after 24 hrs by disk diffusion method; type: functional; settings: NCIM 5021, 24 h
[7] = system: Mycobacterium tuberculosis; assay: Antimycobacterial activity against Mycobacterium tuberculosis H37Rv after 7 days by resazurin microtiter plate assay; type: functional; settings: 168 h
[8] = system: Klebsiella pneumoniae; assay: Antibacterial activity against Klebsiella pneumoniae NCIM 2957 assessed as zone of inhibition at 200 ug/disc after 24 hrs by disk diffusion method; type: functional; settings: NCIM 2957, 24 h, read-out: DIZ
[9] = system: Bacillus subtilis; assay: Antibacterial activity against Bacillus subtilis NCIM 2063 assessed as zone of inhibition at 200 ug/disc after 24 hrs by disk diffusion method; type: functional; settings: NCIM 2063, 24 h, read-out: DIZ
[10] = system: Aspergillus niger; assay: Antifungal activity against Aspergillus niger NCIM 596 after 48 hrs by disk diffusion method; type: functional; settings: NCIM 596, 48 h
[11] = system: Aspergillus niger; assay: Antifungal activity against Aspergillus niger NCIM 596 assessed as zone of inhibition at 200 ug/disc after 48 hrs by disk diffusion method; type: functional; settings: NCIM 596, 48 h, read-out: DIZ
[12] = system: Curvularia lunata; assay: Antifungal activity against Curvularia lunata NCIM 716 assessed as zone of inhibition at 100 ug/disc after 48 hrs by disk diffusion method; type: functional; settings: NCIM 716, 48 h, read-out: DIZ
[13] = system: Fusarium solani; assay: Antifungal activity against Fusarium solani NCIM 1330 assessed as zone of inhibition at 100 ug/disc after 48 hrs by disk diffusion method; type: functional; settings: NCIM 1330, 48 h, read-out: DIZ
[14] = system: Aspergillus niger; assay: Antifungal activity against Aspergillus niger NCIM 596 assessed as zone of inhibition at 100 ug/disc after 48 hrs by disk diffusion method; type: functional; settings: NCIM 596, 48 h, read-out: DIZ
[15] = system: Proteus vulgaris; assay: Antibacterial activity against Proteus vulgaris NCIM 2027 after 24 hrs by disk diffusion method; type: functional; settings: NCIM 2027, 24 h
[16] = system: Staphylococcus aureus; assay: Antibacterial activity against Staphylococcus aureus NCIM 5021 assessed as zone of inhibition at 100 ug/disc after 24 hrs by disk diffusion method; type: functional; settings: NCIM 5021, 24 h, read-out: DIZ
[17] = system: Bacillus subtilis; assay: Antibacterial activity against Bacillus subtilis NCIM 2063 assessed as zone of inhibition at 100 ug/disc after 24 hrs by disk diffusion method; type: functional; settings: NCIM 2063, 24 h, read-out: DIZ
[18] = system: Curvularia lunata; assay: Antifungal activity against Curvularia lunata NCIM 716 assessed as zone of inhibition at 200 ug/disc after 48 hrs by disk diffusion method; type: functional; settings: NCIM 716, 48 h, read-out: DIZ
[19] = system: Fusarium solani; assay: Antifungal activity against Fusarium solani NCIM 1330 assessed as zone of inhibition at 200 ug/disc after 48 hrs by disk diffusion method; type: functional; settings: NCIM 1330, 48 h, read-out: DIZ
[20] = system: Curvularia lunata; assay: Antifungal activity against Curvularia lunata NCIM 716 after 48 hrs by disk diffusion method; type: functional; settings: NCIM 716, 48 h
[21] = system: Staphylococcus aureus; assay: Antibacterial activity against Staphylococcus aureus NCIM 5021 assessed as zone of inhibition at 200 ug/disc after 24 hrs by disk diffusion method; type: functional; settings: NCIM 5021, 24 h, read-out: DIZ
[22] = system: Proteus vulgaris; assay: Antibacterial activity against Proteus vulgaris NCIM 2027 assessed as zone of inhibition at 200 ug/disc after 24 hrs by disk diffusion method; type: functional; settings: NCIM 2027, 24 h, read-out: DIZ
[23] = system: Mycobacterium tuberculosis; assay: Antimycobacterial activity against Mycobacterium tuberculosis H37Rv at 1.5 to 50 ug/ml after 7 days by resazurin microtiter plate assay; type: functional, organism-based

Row | Compound | MIC [1] [mg/L] | MIC [2] [mg/L] | zone of inhibition at 100 µg/disc [3] [mm] | zone of inhibition at 100 µg/disc [4] [mm] | MIC [5] [mg/L] | MIC [6] [mg/L] | zone of inhibition at 200 µg/disc [8] [mm] | zone of inhibition at 200 µg/disc [9] [mm] | MIC [10] [mg/L] | zone of inhibition at 200 µg/disc [11] [mm] | zone of inhibition at 100 µg/disc [12] [mm] | zone of inhibition at 100 µg/disc [13] [mm] | zone of inhibition at 100 µg/disc [14] [mm] | MIC [15] [mg/L] | zone of inhibition at 100 µg/disc [16] [mm] | zone of inhibition at 100 µg/disc [17] [mm] | zone of inhibition at 200 µg/disc [18] [mm] | zone of inhibition at 200 µg/disc [19] [mm] | zone of inhibition at 200 µg/disc [21] [mm] | zone of inhibition at 200 µg/disc [22] [mm] | also measured
1 | Clc1ccc2[nH]c3c(c2c1)CCCc1c[nH]nc1-3 | 100 (≈ 388 µM) | 100 (≈ 388 µM) | 31 | 30 | 200 (≈ 776 µM) | 100 (≈ 388 µM) | 32 | 37 | 200 (≈ 776 µM) | 35 | 34 | 35 | 32 | 100 (≈ 388 µM) | 34 | 35 | 38 | 39 | 36 | 33 | MIC [7]: 12.5 mg/L (≈ 48.5 µM); MIC [20]: 200 mg/L (≈ 776 µM)
2 | Clc1ccc2[nH]c3c(c2c1)CCCc1conc1-3 | 50 (≈ 193 µM) | 100 (≈ 387 µM) | 28 | 26 | 100 (≈ 387 µM) | 50 (≈ 193 µM) | 29 | 34 | 100 (≈ 387 µM) | 32 | 31 | 33 | 29 | 200 (≈ 773 µM) | 32 | 31 | 33 | 35 | 33 | 30 | MIC [7]: 3.12 mg/L (≈ 12.1 µM); MIC [20]: 100 mg/L (≈ 387 µM)
3 | O=C(N[C@H](CO)[C@H](O)c1ccc([N+](=O)[O-])cc1)C(Cl)Cl [CHLORAMPHENICOL] | 6.25 (≈ 19.3 µM) | 12.5 (≈ 38.7 µM) | 42 | 37 |  | 6.25 (≈ 19.3 µM) | 42 | 43 |  |  |  |  |  | 12.5 (≈ 38.7 µM) | 35 | 38 |  |  | 41 | 44 | 
4 | Clc1ccc2[nH]c3c(c2c1)CCCc1cnn(-c2ccccc2)c1-3 | 25 (≈ 74.9 µM) | 50 (≈ 150 µM) | 29 | 28 | 200 (≈ 599 µM) | 25 (≈ 74.9 µM) | 30 | 32 | 100 (≈ 300 µM) | 35 | 31 | 32 | 30 | 50 (≈ 150 µM) | 32 | 33 | 38 | 39 | 34 | 31 | MIC [7]: 3.12 mg/L (≈ 9.35 µM); MIC [20]: 100 mg/L (≈ 300 µM)
5 | Sc1ncc2c(n1)-c1[nH]c3ccccc3c1CCC2 |  |  | 8 | 9 |  |  | 11 | 14 |  | 13 | 13 | 11 | 10 |  | 11 | 12 | 16 | 14 | 13 | 10 | MIC [23]: inactive
6 | Oc1ncc2c(n1)-c1[nH]c3ccc(Cl)cc3c1CCC2 | 50 (≈ 175 µM) | 100 (≈ 350 µM) | 22 | 22 | 100 (≈ 350 µM) | 50 (≈ 175 µM) | 25 | 28 | 50 (≈ 175 µM) | 19 | 19 | 17 | 16 | 100 (≈ 350 µM) | 26 | 25 | 23 | 20 | 27 | 20 | MIC [7]: 3.12 mg/L (≈ 10.9 µM); MIC [20]: 50 mg/L (≈ 175 µM)
7 | Oc1ncc2c(n1)-c1[nH]c3ccccc3c1CCC2 |  |  | 21 | 22 |  |  | 24 | 29 |  | 15 | 16 | 13 | 11 |  | 25 | 27 | 18 | 16 | 28 | 23 | MIC [23]: inactive
8 | CC(=O)N1CCN(c2ccc(OCC3COC(Cn4ccnc4)(c4ccc(Cl)cc4Cl)O3)cc2)CC1 (stereo unspecified) [KETOCONAZOLE] |  |  |  |  | 12.5 (≈ 23.5 µM) |  |  |  | 6.25 (≈ 11.8 µM) | 38 | 40 | 36 | 35 |  |  |  | 43 | 40 |  |  | MIC [20]: 6.25 mg/L (≈ 11.8 µM)
9 | c1ccc2c3c([nH]c2c1)-c1n[nH]cc1CCC3 |  |  | 22 | 23 |  |  | 26 | 28 |  | 31 | 31 | 30 | 28 |  | 27 | 26 | 33 | 35 | 29 | 25 | MIC [23]: inactive
10 | Sc1ncc2c(n1)-c1[nH]c3ccc(Cl)cc3c1CCC2 | 50 (≈ 166 µM) | 100 (≈ 331 µM) | 11 | 12 | 100 (≈ 331 µM) | 50 (≈ 166 µM) | 14 | 17 | 50 (≈ 166 µM) | 17 | 17 | 16 | 15 | 100 (≈ 331 µM) | 16 | 15 | 21 | 19 | 18 | 13 | MIC [7]: 25 mg/L (≈ 82.8 µM); MIC [20]: 50 mg/L (≈ 166 µM)

Reference: ChEMBL document CHEMBL1926563, “Synthesis, antimicrobial, antimycobacterial and structure-activity relationship of substituted pyrazolo-, isoxazolo-, pyrimido- and mercaptopyrimidocyclohepta[b]indoles” (2012)
